Structures can show the parent of a compound that is named as a salt. Where two headings read alike, the source gives them in different places.
Tests used:
HIV-1 [1] = assay: Viral production in HIV-1-infected cultured monocytes at fixed 100 nM compound (Table II); assay type: cell-based; settings: Human immunodeficiency virus 1, Monocyte, read-out: Viral Production (percentage of untreated control)
Description: Alternatively, the compounds may all be compared for inhibition of HIV replication at a fixed concentration. Presented in Table II are compounds that were used at a concentration of 100 nM to inhibit the production of HIV-1 in cultured monocytes infected with HIV-1 10 days prior to assay (10 ng of p24/10^6 cells) . The production of HIV-1 in each treated culture is reported as percentage of untreated control.

HIV-1 [2] = assay: AZT and Compound No. 2 in combination on HIV-1 infected monocyte cultures (RT activity); assay type: cell-based, HIV-1 in human monocyte cultures; settings: for RT activity: (-) No. 2
Description: Primary human monocytes were obtained from peripheral blood by Ficoll-Hypaque centrifugation and adherence to plastic as described previously. Gartner S. P., et al., 1986, Science 233:215. Briefly, after Ficoll-Hypaque (Pharmacia) separation, PBMCs were washed 4 times with DMEM (the last wash was done at 800 rpm to remove platelets) and resuspended in monocyte culture medium [DMEM supplemented with 1 mM glutamine, 10% heat-inactivated human serum, 1% penicillin+streptomycin mixture (Sigma)] at a density of 6×10^6 cells/ml. Cells were seeded in 24-well plates (1 ml per well) and incubated for 2 h at 37° C., 5% CO2. Following incubation, cells were washed 3 times with DMEM to remove non-adherent cells and incubation was continued in monocyte culture medium supplemented with 250 U/ml human M-CSF (Sigma). Cells were allowed to mature for 7 days prior to infection with the monocyte-tropic strain, HIV-1ADA. Nuovo, G. J., et al., 1992, Diagn. Mol. Pathol. 1:98. Two hours after infection, cells were washed with medium and cultured in RPMI supplemented with 10% human serum. In experiments where PCR analysis was performed, virus was pretreated with RNAse-free DNAse (Boehinger-Mannheim)for 2 h at room temperature and then filtered though a 0.2 μm pore nitrocellulose filter prior to infection.
For the reverse transcriptase (RT) assay, 10 μl of culture supernatant was added to 40 μl of reaction mixture (final composition was 50 mM Tris-HCl, pH 7.8; 20 mM KCl; 5 mM MgCl2; 1 mM DTT; 0.1% Triton X-100; 0.2 OD/ml polyA; 0.2 OD/ml oligo(dT)12-18; and 40 μCi/ml ^3 H-dTTP (76 Ci/mmol, DuPont) and incubated 2 hr at 37° C. 5 μl of the reaction mixture was then spotted onto the DE 81 (Whatman) paper. Paper was air dried and washed 5 times with 5% Na2 HPO4, followed by rinsing with distilled water. After air drying, paper was put on a Flexi Filter plate (Packard), covered with scintillation fluid and counted in a Top Count Microplate Counter (Packard). Results are expressed as counts per minute in 1 ml of supernatant (cpm/ml).
In view of these premises, the effects on HIV-1 replication in human monocyte cultures of the various concentrations of AZT, alone or in combination with 100 nM Compound No. 2, were tested using the protocols of Sections 6.2.1 and 6.2.2. Drugs were added to the monocyte cultures together with HIV-1 at about 10^5 TCID/ml. The concentration of drugs was maintained on refeeding. HIV-1 replication was assessed by assay of the supernatant for reverse transcriptase activity. The results are expressed as mean±std. dev. (cpmx10^-3) in Table V.

[3] = test system: Plasmodium falciparum clone Dd2; assay: Antimalarial activity in vitro, hypoxanthine incorporation, clone Dd2; assay type: cell-based; settings: for IC50: Plasmodium falciparum, DD2, read-out: IC50 ± standard deviation
Description: The antimalarial activity of the compounds was determined essentially as described in Desjardins et al. supra. Fifty Al of various concentrations of a compound of the invention, chloroquine, or pyrimethamine were added to the wells of microtiter plates, followed by 200 Al of ring-stage, synchronized, P. falciparum-infected erythrocytes (final hematocrit=1.5%, final parasitemia=1-5%). The plates were incubated for 24 hr in a candle jar kept at 37° C., and then 25 μl of [^3 H]-hypoxanthine (Amersham, Arlington Heights, Ill.; 2.5 μl Ci/well) was added. The plates were then incubated for a further 24 hr, before harvesting onto Unifilter-96 GF/C filter-microplates (Packard; Meriden, Conn.). Twenty-five μl of Microscint scintillation fluid (Packard) was added to each well of the filter-microplate, which was subsequently counted in a Top-count microplate scintillation counter (Packard). The percent of [^3 H] -hypoxanthine uptake relative to control infect-erythrocytes was used to determine the IC50 value for the compounds by non-linear regression for LD50 determination.
The Dd2 clone of P. falciparum, which was both chloroquine and pyrimethamine resistant, was utilized to compare the antimalarial activity of the remaining CNI compounds (Table VIII).

mice = assay: Toxicity study: median lethal dose in mice, i.p.; assay type: in vivo
Description: The doses of compounds of the invention found to be lethal to 50% of the mice (LD50) were determined by intraperitoneal injection of groups of five animals with increasing doses of each compound. CNI-0294 was administered from 0, 2, 10, 20, 40, 80, 160, 320, 640, 1280 mg/kg in 0.5 ml of water/HCl; CNI-1594 at 0, 2.4, 5, 10, 20, 40, 80 mg/kg in 0.5 ml of water/HCl; CNI-1794 at 0, 20, 50, 80 mg/kg in 0.5 ml of water/HCl; and CNI-1894 at 0, 10, 20, 40, 80, 240, 480, 960 mg/kg in water/HCl. […] The percentage of animals in each group which died were utilized to calculate the LD50 by non-linear curve fitting with the Enzfit software (Elsevier Bioscience; Cambridge, UK) programmed with the Chou equation (Chou 1976, J Theor Biol 39:253-276)).
The compounds (FIGS. 4A-E), were screened for toxicity via a modified LD50 assay procedure as described above in an outbred strain of mice.

[4] = i.p., 50 mg/kg, water
Description: (§1) Standard addition curves for each test compound were constructed by adding increased amounts of drug to mouse or human A^+ plasma (Long Island Blood Services; Melville, N.Y.). […] The eluted sample was reduced to dryness in a rotary evaporator and resuspended in 1.0 ml Buffer A.
(§2) Female ND4 Swiss Webster mice (21-24 g) were obtained from Harlan Sprague Dawley (Indianapolis, Ind.) and randomly placed in groups of five in cages with free access to food and water. […] The other CNI compounds were administered intraperitoneally or by oral gavage as a solution in water titrated with sufficient HCl to dissolve the drug. At various time points, ranging from 5 min to 4 days, a single group of animals was euthanized by carbon dioxide inhalation and bled by cardiac puncture using heparin as an anticoagulant. The blood from the five mice in the group was pooled and centrifuged at 14000×g for 10 min. The volume of plasma was measured, and equal volume of Buffer A added, and the mixture extracted and analyzed as described above, except that the dried eluates were resuspended in 200 μl Buffer A and 100 μl was injected onto the high performance liquid chromatography (HPLC) system.
(§3) The area under the plasma concentration-time curve (AUC) was determined, and bioavailability was measured as AUCoral /AUCi.p.. […] The volume of distribution (VD) was calculated as dose/B, and the total clearance rate (Cltot) calculated as β*VD. Cmax and tmax are the maximal plasma concentration and time of this measurement, respectively.

in vivo = settings: mouse, plasma, ip, 50 mg/kg
Description: as §1, §2, §3

in vitro = in vitro ADME, mouse (ND4 Swiss Webster); settings: for number of metabolites: mouse liver post-mitochondrial supernatant, NADPH
Description: Several female ND4 Swiss Webster mice were euthanized by carbon dioxide inhalation and the livers excised and rinsed with ice cold phosphate buffered saline (pH 7.4). The livers were minced, gently homogenized in 50 mM phosphate buffer (pH 7.4) with a Dounce homogenizer, and centrifuged at 9600×g for 20 min. The post-mitochondrial supernatant was kept, glycerol added to 20%, and frozen at -70° C. in 1.0 ml aliquots until used. For each incubation, 1.0 ml of a 1.0 mg/ml drug solution was added to 3.0 ml of 50 mM phosphate buffer (pH 7.4), 1.0 ml of 2 mg/ml NADPH in 50 mM phosphate (pH 7.4), and 1.0 ml of the post-mitochondrial supernatant. Five hundred μl of each incubate was then immediately transferred to an ice-cold tube to provide the zero-time sample, and addition 500 μl aliquots removed to ice-cold tubes at 8, 15, 30, and 60 min. The samples were then extracted, and analyzed by HPLC as described in section 7.1. Control incubations were also performed where drug or post-mitochondrial supernatant was omitted. […] Peaks in the CNI compound incubations which increased over time, and were not present in control samples lacking the enzyme preparation were treated as putative metabolites.

HIV-1 [5] = assay: Inhibition of HIV-1 replication in cultured macrophages (Table I); assay type: cell-based; settings: Human immunodeficiency virus 1, Macrophage; 50% inhibition of viral growth, RT or p24, macrophages
Description: A quantitative measurement of the activity of the compounds of the invention to block the replication of HIV-1 in non-dividing cells can be determined by culture of a macrophage-tropic strain of HIV-1 on peripheral blood-derived macrophages. The cells are cultured for 5-6 days prior to infection in a medium consisting of DMEM supplemented with 10% type A/B human serum and 200 U/ml Macrophage Colony Stimulating Factor, with half the medium changed after 3 days, to reach a density of about 10^6 cells per 5 ml well. A macrophage-tropic viral stock may be grown on these cells. The concentration of infectious particles in the stock is estimated by measurement of p24 antigen concentration.
To test the effect of compounds of the invention on HIV- 1 infection in the above-described culture system, the medium is removed and replaced with medium containing HIV-1 at a concentration of 1 ng of p24 (10^4 TCID50 /ml (TCID=tissue culture infectious doses)) and a known concentration of the compound of the invention (the inhibitor). After 24 hours, the cultures are washed to remove non-adherent virus and the culture is re-fed with medium containing the inhibitor at the desired concentration. The amount of replication of HIV-1 is estimated by an assay of the reverse transcriptase activity or by an assay of the concentration of p24 antigen in the culture medium every 2-3 days throughout the post-infection period. In a preferred embodiment the anti-HIV potency of the candidate drug is measured by comparison of the concentration of reverse transcriptase (RT) or of p24 antigen in the medium of the treated and control cultures at the time of the peak of these values in non-treated control cultures, that is about day 5 or 6 post-infection. Repetition at various levels of inhibitor allows for the calculation of the concentration of inhibitor that achieves 50% inhibition of viral growth, IC50. Table I discloses the IC50 of various inhibitors.

[6] = 100 nM compound, monocytes infected 10 days prior, 10 ng p24/10^6 cells

Molecule `CC(=O)c1cccc(C(C)=O)c1N` [2,6-diacetylaniline] has an activity at 0.1 µM (HIV-1 [1]; [6]) of 28%.
`CC(=O)c1cncc(C(C)=O)c1` [3,5-diacetylpyridine] showed an activity at 0.1 µM (HIV-1 [1]; [6]) of 58%.
`Cc1cn([C@H]2C[C@H](N=[N+]=[N-])[C@@H](CO)O2)c(=O)[nH]c1=O` [AZT] showed an inhibition at 10 pM (HIV-1 [2]; Human immunodeficiency virus 1, Monocyte, 264 h, read-out: reduction in RT activity) of about 20%, an RT activity (HIV-1 [2]; day-7, AZT 10 pM) of 0.92 ± 0.21 cpmx10^-3 and an RT activity (HIV-1 [2]; day-7, AZT 100 pM) of 0.79 ± 0.14 cpmx10^-3. For the same molecule, the RT activity (HIV-1 [2]; day-7, AZT 1 nM) was 0.60 ± 0.28 cpmx10^-3, the RT activity (HIV-1 [2]; day-7, AZT 10 nM) was 0.05 ± 0.02 cpmx10^-3 and the RT activity (HIV-1 [2]; day-11, AZT 10 pM) was 1.63 ± 0.81 cpmx10^-3. The RT activity (HIV-1 [2]; day-11, AZT 100 pM) was 1.34 ± 0.59 cpmx10^-3, the RT activity (HIV-1 [2]; day-11, AZT 1 nM) was 1.07 ± 0.49 cpmx10^-3 and the RT activity (HIV-1 [2]; day-11, AZT 10 nM) was 0.08 ± 0.03 cpmx10^-3.
In the case of `CC(=O)c1cc(N)cc(C(C)=O)c1` [CNI-1894, 3,5-diacetylaniline], the IC50 [3] is reported as over 200 µM, the “antimalarial activity at the highest concentration tested” value ([3]; clone Dd2, 200 μM) is reported as “inactive at the highest concentration tested” and the activity at 0.1 µM (HIV-1 [1]; [6]) is reported as 20%. The “LD50 (median lethal dose)” value (mice) was 258.64 ± 1.37 mg/kg, the “signs and time of toxic reactions / death” value (mice) was “died 2-3 days post injection, and showed no sign of any immediate toxicity” and the tolerability (mice) was “reasonably well tolerated”. The “A (zero time intercept, distribution phase)” value [4] was 14.93 µg/mL, the “B (zero time intercept, elimination phase)” value [4] was 0.15 µg/mL and the VD [4] was 6.60 L. It also gave a t1/2α [4] of 0.58 h, a t1/2β [4] of 23.10 h and a α [4] of 1.19 h⁻¹. For the same molecule, the CL/F (in vivo) was 3.3 mL/min, the k el (in vivo) was 8.33e-06 s⁻¹ and the number of metabolites (in vitro) was “one minor and one major metabolite”. It also gave a metabolised at 1 h (in vitro; mouse, liver post-mitochondrial supernatant, 60 min incubation, by peak area, read-out: drug altered (metabolic conversion)) of 17.3%.
`CC(=O)c1cc(NC(=N)NC(=N)N)cc(C(C)=O)c1` [Compound No. 12, N-(3,5-diacetylphenyl)biguanide hydrochloride] gave an activity at 0.1 µM (HIV-1 [1]; [6]) of 12%.
Molecule `CC(=O)c1cc(Nc2nc(N)nc(N)n2)cc(C(C)=O)c1` [Compound No. 13, 2-(3,5-diacetylphenyl)amino-4,6-diamino-1,3,5-triazine] has an activity at 0.1 µM (HIV-1 [1]; [6]) of 14%.
`CC(=O)c1cccc(Nc2cc(C)[n+](C)c(N)n2)c1` [Compound No. 14, 2-amino-4-(3-acetylphenyl)amino-1,6-dimethylpyrimidinium iodide] gave an IC50 (HIV-1 [5]) of 0.01 µM.
For `CC(=O)c1ccc(Nc2cc(C)nc(N)n2)cc1` [Compound No. 17, 2-amino-4-(4-acetylphenyl)amino-6-methylpyrimidine], the activity at 0.1 µM (HIV-1 [1]) was 20%, the “LD50 (median lethal dose)” value (mice) was 48.93 ± 0.12 mg/kg and the “LD50 compared with CNI-1594” value (mice) was “identical to that for CNI-1594”. The “signs and time of toxic reactions / death” value (mice) was “suggested a lethal neurotoxicity”.
With `Cc1cc(Nc2ccccc2)nc(N)n1` [Compound No. 45, 4-phenylamino-2-amino-6-methylpyrimidine] the IC50 [3] was 25.1 ± 0.72 µM.
With `N=C(N)c1ccc(OCCCCCOc2ccc(C(=N)N)cc2)cc1` [pentamidine, reference compound] the number of metabolites (in vitro) was “seven”.
